US11578049B2, “Benzoic acid compound and method for preparing the same” (Henan Genuine Biotech Co., Ltd., priority 2018, dated 2023)
Several values for one entry are separate records, joined by “and”; a condition that tells them apart may be missing. Equal values may be shown once.

Assays:
[1] = test system: rats exposed to cerebral ischemia and reperfusion; assay: Cerebral blood flow in rats exposed to cerebral ischemia and reperfusion (tMCAO), laser Doppler; format: in vivo, Sprague Dawley (SD) rats; details: for Reperfusion/Postoperative (cerebral blood flow recovery): 2 hours ischemia, 3 mg/kg iv immediately after reperfusion; for Postoperative/Preoperative (cerebral blood flow): blood flow immediately after initiation of ischemia relative to before the operation, drug 3 mg/kg iv given immediately after reperfusion
Experimental: (§1) 1.2 Experimental procedure: Male Sprague Dawley (SD) rats was subjected to operation after experimental adaption for 5-7 days, with a weight of 200-250 g. The rats were anesthetized by intraperitoneal injection of 0.35 mL/100 g 10% chloral hydrate, and positioned on a temperature-controlled, operating surface. The common carotid artery was isolated from surrounding nerves to the bifurication between the external carotid artery and the internal carotid artery. The external carotid artery was then isolated. A sterile middle cerebral artery occlusion (MCAO) suture was advanced through external carotid artery into the internal carotid artery (about 18 mm±0.5 mm from the point of the carotid bifurication), effectively occluding the middle cerebral artery. The suture was withdrawn after 2 hours ischemic period to simulate clinical reperfusion. All rats were scored according to Longa scoring system, in which the rats with a total score less than 1 were withdrawn. The rats were kept on a heating blanket and allowed to recover from anesthesia. A neurobehavioral examination was performed at 24 h after awakening. Blood was drawn from each rat under anesthesia, collected in a tube containing K2-EDTA as anticoagulant for stabilizing the blood samples, centrifuged to separate supernatant from precipitate, and stored at […]. Then the rats were euthanized. The brains were cut into slices, stained with 2,3,5-triphenyltetrazolium chloride (TTC), and used to determine the infarct area. The experiment was complete within 3 days, with 3-4 rats per group daily.
1.3 Intraoperative monitoring: Transcranial measurement of cerebral blood flow was made using […] at three points, namely before the operation, immediately after the initiation of ischemia, and immediately after reperfusion.
(§2) 1.7 Drug preparation: The drugs to be tested were accurately weighed, dissolved in physiological saline to give a final concentration of 1.5 mg/mL.
(§3) 1.8 Administration method: The drugs were removed from the refrigerator and […] to room temperature before the rats were dosed. The dosing volume was 2 mL/kg.
(§4) All data was imported into an Excel worksheet, and expressed as mean±standard error of the mean. Statistical significance was determined by one-way ANOVA with Dunnett's multiple comparison test (*P<0.05, **P<0.01).

[2] = Metabolic stability measured in human liver microsomes; details: for half-life at 2 μg/mL: human, pH 7.4; for t1/2 (elimination half-life): human liver microsomes 1.0 mg/ml, compound 2 μg/mL, NADPH 2 mM, pH 7.4, 37° C.
[3] = test system: rats exposed to cerebral ischemia and reperfusion; assay: Infarct area of rats exposed to cerebral ischemia and reperfusion (tMCAO), TTC staining; format: in vivo, Sprague Dawley (SD) rats; details: 3 mg/kg iv immediately after reperfusion; for Cerebral infarction ratio: TTC, infarct area / total brain area; for Percentage inhibition of cerebral infarction: versus model group
Experimental: as §1, §2, §3
1.9.2 Cerebral infarction ratio: The rats were euthanized with chloral hydrate (330 mg/kg anesthesia), given by CO2 inhalation, and blood was drawn by cardiac puncture. The brains were removed from the skull and cut into 2 mm coronal slices using a rat brain matrix. Each slice was stained with 1% TTC at 37° C. for 5 minutes, protected from light, and were photographed. The ratio of infarct area was then determined using an image analysis software Image Pro Plus 6.0. The infarct areas were summed and divided by total brain area to yield the ratio of infarct area.
as §4

[4] = Physical properties of the salts (water absorption); format: physicochemical; details: solid salt
From the text: 5. The type of the salt of the compound 5 affects its physical properties. […] In addition, the excess alkali leads to the closed-loop reaction between hydroxyl group and fluorine atom. Potassium hydroxide contacts the compound 12 to yield a potassium salt which is not a solid. […] Therefore, high-purity of potassium salt and sodium salt products are not easy to obtain in this disclosure, which is unfavorable to large-scale production. Therefore, the following compounds are also included in the present invention: […]

in vivo = details: mouse
in vitro = details: human, microsomes, pH 7.4
mice = details: for median lethal dose: acute toxicity test
[5] = text: recovery relative to preoperative, 3 mg/kg

Structure (SMILES): O=C([O-])c1cc(Br)ccc1C(O)CCC1CC1.[Na+] (centres unmarked) [Compound 14]
- Reperfusion/Postoperative (cerebral blood flow recovery) ([1]; recovery relative to preoperative): 88.3%
- Postoperative/Preoperative (cerebral blood flow) [1]: 13.5%
- half-life at 2 μg/mL ([2]; human liver microsomes): 2.44 h

Structure (SMILES): O=C(O)c1cc(Br)ccc1C(O)CCCCF (centres unmarked) [Compound 17]
- Reperfusion/Postoperative (cerebral blood flow recovery) [1, 5]: 95.6% and 95.3%
- Postoperative/Preoperative (cerebral blood flow) [1]: 15.5%
- Cerebral infarction ratio [3]: 11.8%
- Percentage inhibition of cerebral infarction [3]: 77.4%
- water absorption in the air [4]: no water absorption
- LD50 (in vivo; intravenous): 1100 mg/kg
- half-life at 2 μg/mL (in vitro): 19.3 h

Structure (SMILES): O=C([O-])c1cc(Br)ccc1C(O)CCCCF.[Na+] (centres unmarked) [Compound 15]
- Reperfusion/Postoperative (cerebral blood flow recovery) [1, 5]: 95.6%
- Reperfusion/Postoperative (cerebral blood flow recovery) ([1]; text: recovery relative to preoperative, listed as compound 15, 3 mg/kg): 95.3% and 95.6%
- Postoperative/Preoperative (cerebral blood flow) [1]: 16.8%
- Cerebral infarction ratio ([3]; 3 mg/kg): 12.0%
- Cerebral infarction ratio ([3]; listed as compound 15, 3 mg/kg): 12.0%
- Percentage inhibition of cerebral infarction ([3]; 3 mg/kg): 75.3%
- Percentage inhibition of cerebral infarction ([3]; listed as compound 15, 3 mg/kg): 75.3%
- water absorption in the air [4]: easy to absorb water in the air
- median lethal dose (mice): 1036 mg
- LD50 (in vivo): 1040 mg/kg
- half-life at 2 μg/mL ([2]; microsomes): 19.1 h

Structure (SMILES): CCCCC(O)c1ccccc1C(=O)[O-].[K+] (centres unmarked) [Potassium butylphthalide]
- Cerebral infarction ratio ([3]; 3 mg/kg): 37.5%
- Cerebral infarction ratio ([3]; listed as potassium butylphthalide, 3 mg/kg): 37.5%
- Percentage inhibition of cerebral infarction ([3]; 3 mg/kg): 26.4%
- Percentage inhibition of cerebral infarction ([3]; listed as butylphthalide potassium, 3 mg/kg): 26.4%
- median lethal dose (mice): 373 mg
- LD50 (median lethal dose) (mice; injected via tail vein): 373 mg/kg
- t1/2 (elimination half-life) ([2]; listed as Potassium Butylphthalide): <1 h
- t1/2 (elimination half-life) ([2]; listed as potassium butylphthalide): less than 1 h
